This series is described as follows: Stability of oxysterols in NPC plasma samples processed with/without BHT at 4° C. or room temperature. The series is classed as physicochemical, human. Here is the method: Treatments include: NPC plasma samples treated with BHT (“BHT”), no BHT (“No BHT”), at 4° C. with BHT (“4 BHT”), at 4° C. without BHT (“4 No BHT”), at room temperature (20-21° C.) with BHT (“RT BHT”), and at room temperature (20-21° C.) without BHT (“RT No BHT”).
Treatments include: NPC plasma samples treated overnight with BHT (“BHT”), no BHT (“No BHT”), at 4° C. with BHT (“4 BHT”), at 4° C. without BHT (“4 No BHT”), at room temperature (20-21° C.) with BHT (“RT BHT”), and at room temperature (20-21° C.) without BHT (“RT No BHT”).
The stability of the oxysterols triol and 7-keto prepared in accordance with the methods of the present disclosure are shown in FIGS. 7A and 7B. Patient's having confirmed NPC disease were used to obtain plasma biological samples. The plasma biological samples were processed as described in Examples 1-4 except that some of the samples were not treated with butylated hydroxytoluene (BHT, a known antioxidant that prevents further oxidation of cholesterol), and either treated at room temperature or at 4° C. with and without BHT.

Consider two compounds from US9012216B2, “Methods of determining efficacy of cyclodextrin therapy” (Washington University, priority 2008, dated 2015).

For `CC(C)CCC[C@@H](C)[C@H]1CC[C@H]2[C@@H]3C[C@@H](O)[C@@]4(O)C[C@@H](O)CC[C@]4(C)[C@H]3CC[C@]12C` [triol, cholestane-3β,5α,6β-triol], the “Stability in plasma samples: ability to isolate and quantify” value is “without adversely affecting”.
With `CC(C)CCC[C@@H](C)[C@H]1CC[C@H]2[C@@H]3C(=O)C=C4C[C@@H](O)CC[C@]4(C)[C@H]3CC[C@]12C` [7-keto, 7-ketocholesterol] the entry was “without adversely affecting”.
